Our source for the IC50 values is patent US7084178B2, “Antiamyloid phenylsulfonamides: N-cycloalkylcarboxamides derivatives” (Bristol-Myers Squibb Company, priority 2003, dated 2006).

Bounds are passed on as bounds.

The first assay has as its system Aβ formation in H4 cells stably transfected to overexpress the HPLAP-APP fusion protein. The experiment in a line: Inhibition of β-amyloid peptide formation in human H4 cells. As to conditions: H4 cells overexpressing HPLAP-APP, 18 hrs at 37° C. The assay is classed as cell-based. The protocol: γ-Secretase inhibitors can also be evaluated using in vitro assays based on the inhibition of Aβ formation in cultured cells. Cultured human cell lines, such as HEK293 and H4 cells, which express APP and γ-secretase activity or transfected derivative cell lines that overexpress wild-type APP, mutant APP, or APP fusion proteins will secrete Aβ peptides into the culture media that can be quantified as previously outlined (Dovey, H., John, V. et al., J. Neurochem. 2001, 76, 173–181). The incubation of these cultured cells with γ-secretase inhibitors decreases the production of Aβ peptides. For instance, H4 cells stably transfected to overexpress the HPLAP-APP fusion protein described above were grown as above, detached, and adjusted to 2×10^5 cells/ml. 100 μl of the resulting suspension was then added to each well of a 96-well plate. After 4 hrs, the media was removed and replaced with 100 μl serum-free media containing various dilutions of the test compound. Plates were then incubated for 18 hrs at 37° C. and a 100 μl aliquot of the tissue culture supernatant was removed for determination of Aβ levels using time-resolved fluorescence of the homogenous sample as outlined above. Alternately, the other methods described above for Aβ determination could be used. The extent of Aβ inhibition was used to calculate the IC50 value for the test compound.
In Table 2, an inhibitory concentration (IC50) of less than or equal to 50 nM is represented by +++; between 50 nM and 500 nM by ++; between 500 nM and 50000 nM by +.
For “(1S,2R)-2-[(4- Chlorobenzenesulfonyl)-[4-( -hydroxy-1-methyl-ethyl)-benzyl]-amino]-cyclohexanecarboxylic acid amide [Example 6]”, the IC50 was at most 50 nM.

Still in this assay, the particulars now being: Homo sapiens; H4 cells overexpressing HPLAP-APP, 18 hrs at 37° C.
With `NC(=O)[C@@H]1CCCC[C@@H]1N(Cc1ccc(C(F)(F)F)cc1)S(=O)(=O)c1ccc(Cl)cc1` (relative stereo) [Example 10, cis-2-[(4-Chlorobenzenesulfonyl)-(4-trifluoromethyl-benzyl)-amino]-cyclohexanecarboxylic acid amide], the IC50 was in the range of 50 to 500 nM. Same read-out and setting: to `COC(=O)c1ccc(CN([C@@H]2CCCC[C@@H]2C(N)=O)S(=O)(=O)c2ccc(Cl)cc2)cc1` (relative stereo) [Example 13, cis-4-[[(2-Carbamoyl-cyclohexyl)-(4-chlorobenzenesulfonyl)-amino]-methyl]-benzoic acid methyl ester] belongs at most 50 nM; to `N#Cc1ccc(CN([C@H]2CCCCC[C@H]2C(N)=O)S(=O)(=O)c2ccc(Cl)cc2)cc1` (relative stereo) [Example 21, cis-2-[(4-Chlorobenzenesulfonyl)-(4-cyano-benzyl)-amino]-cycloheptanecarboxylic acid amide], 500 to 50000 nM; to `CCNC(=O)c1ccc(CN([C@H]2CCCCC[C@H]2C(N)=O)S(=O)(=O)c2ccc(Cl)cc2)cc1` (relative stereo) [Example 24, cis-2-[(4-Chlorobenzenesulfonyl)-(4-ethylcarbamoyl-benzyl)-amino]-cycloheptanecarboxylic acid amide], at most 50 nM. For the compound `COC(=O)c1ccc(CN([C@@H]2CCCC[C@@H]2C(N)=O)S(=O)(=O)c2ccc(Cl)cc2)cc1` [Example 1, 4-[[(1R,2S)-(2-Carbamoyl-cyclohexyl)-(4-chlorobenzenesulfonyl)-amino]-methyl]-benzoic acid methyl ester], the IC50 is at most 50 nM.

The compound `CCNC(=O)c1ccc(CN([C@@H]2CCCC[C@@H]2C(N)=O)S(=O)(=O)c2ccc(Cl)cc2)cc1` [Example 2, 4-[[(1R,2S)-(2-Carbamoyl-cyclohexyl)-(4-chlorobenzenesulfonyl)-amino]-methyl]-N-ethyl-benzamide] displayed an IC50 of at most 50 nM. The compound `CC(C)(C)c1ccc(CN([C@@H]2CCCC[C@@H]2C(N)=O)S(=O)(=O)c2ccc(Cl)cc2)cc1` [Example 3, (1S,2R)-2-[(4-tert-Butyl-benzyl)-(4-chlorobenzenesulfonyl)-amino]-cyclohexanecarboxylic acid amide] gave an IC50 of 50 to 500 nM. On the same count and under the same terms, to `NC(=O)[C@H]1CCCC[C@H]1N(Cc1ccc(OC(F)(F)F)c(Cl)c1)S(=O)(=O)c1ccc(Cl)cc1` [Example 4, (1S,2R)-2-[(4-Chlorobenzenesulfonyl)-(3-chloro-4-trifluoromethoxy-benzyl)-amino]-cyclohexanecarboxylic acid amide] belongs 50 to 500 nM; to `NC(=O)[C@H]1CCCC[C@H]1N(Cc1ccc(F)c(Cl)c1)S(=O)(=O)c1ccc(Cl)cc1` [Example 5, (1S,2R)-2-[(4-Chlorobenzenesulfonyl)-(3-chloro-4fluoro-benzyl)-amino]-cyclohexanecarboxylic acid amide], 50 to 500 nM; to `NC(=O)[C@H]1CCCC[C@H]1N(Cc1ccc(Cl)s1)S(=O)(=O)c1ccc(Cl)cc1` [Example 7, (1S,2R)-2-[(4-Chlorobenzenesulfonyl)-(5-chloro-thiophen-2-ylmethyl)-amino]-cyclohexanecarboxylic acid amide], at most 50 nM. Same read-out and setting: to `NC(=O)[C@H]1CCCC[C@H]1N(Cc1ccc(SC(F)(F)F)cc1)S(=O)(=O)c1ccc(Cl)cc1` [Example 8, (1S,2R)-2-[(4-Chlorobenzenesulfonyl)-(4-trifluoromethylsulfanyl-benzyl)-amino]-cyclohexanecarboxylic acid amide] belongs at most 50 nM.

Another assay concerns γ-secretase. The experiment in a line: Competitive in vitro binding assay with [3H]-Compound A and membranes from THP-1 cells. Particulars: displacement of [3H]-Compound A, THP-1 cell membranes, 23° C., 1.3 hr; read-out: Binding affinity (IC50 in nM). The source says:
Competitive in vitro binding assays can be used to identify compounds that inhibit γ-secretase activity. For example, [^3H]-Compound A can be used for binding assays with membranes from THP-1 cells (Seiffert, D.; Bradley, J. et al., J. Biol. Chem. 2000, 275, 34086–34091). Compound A is (2R,3S) N1-[(3S)-hexahydro-1-(3-phenoxybenzyl)-2-oxo-1H-azepin-3-yl]-2-(2methylpropyl)-3-(propyl)-butanediamide, which is described in U.S. patent U.S. Pat. No. 6,331,408 (Dec. 18, 2001); PCT Publication WO 00/28331; PCT Publication WO 00/07995; and Seiffert, D., Bradley, J. et al., J. Biol. Chem. 2000, 275. 34086–34091.
To evaluate the compounds of this invention using this assay, THP-1 cells were grown in spinner cultures in RPMI 1640 containing L-glutamine and 10 μM β-mercaptoethanol to a density of 5×10^5 cells/ml. Cells were harvested by centrifugation and cell pellets were quick frozen in dry ice/ethanol and stored at −70° C. prior to use. The pellets of approximately 2×10^4 THP-1 cells were homogenized using a Brinkman Polytron at setting 6 for 10 sec. The homogenate was centrifuged at 48,000×g for 12 min, and the resulting pellet was washed by repeating the homogenization and centrifugation. The final cell pellet was resuspended in buffer to yield a protein concentration of approximately 0.5 mg/ml. Assays were initiated by the addition of 150 μl of membrane suspension to 150 μl of assay buffer containing 0.064 μCi of radioligand and various concentrations of unlabeled compounds. Binding assays were performed in duplicate in polypropylene 96-well plates in a final volume of 0.3 ml containing 50 mM Hepes, pH 7.0, and 5% dimethyl sulfoxide. Nonspecific binding was defined using incubations with 300 nM compound A (Seiffert, D., Bradley, J. et al., J. Biol. Chem. 2000, 275, 34086–34091). After incubating at 23° C. for 1.3 hr, bound ligand was separated from free radioligand by filtration over GFF glass fiber filters presoaked in 0.3% ethyleneimine polymer solution. Filters were washed three times with 0.3 ml of ice cold phosphate-buffered saline, pH 7.0, containing 0.1% Triton X-100. Filter-bound radioactivity was measured by scintillation counting. IC50 values were then determined and used to calculate Ki values using the Cheng-Prusoft correction for IC50 values.
The compounds of this invention were evaluated in the assay described above, as well as with other evaluation methods, and found to be inhibitors of γ-secretase. In the table, an inhibitory concentration (IC50) of less than or equal to 50 nM is represented by +++; between 50 nM and 500 nM by ++; between 500 nM and 10000 nM by +.
`COC(=O)c1ccc(CN([C@@H]2CCCCC[C@@H]2C(N)=O)S(=O)(=O)c2ccc(Cl)cc2)cc1` (relative stereo) [Example 20, cis-4-[[(2-Carbamoyl-cycloheptyl)-(4-chlorobenzenesulfonyl)-amino]-methyl]-benzoic acid methyl ester]: the IC50 lay within 50 to 500 nM. Turning to `NC(=O)[C@@H]1CCCCC[C@@H]1N(Cc1ccc(-n2cccn2)cc1)S(=O)(=O)c1ccc(Cl)cc1` (relative stereo) [Example 23, cis-2-[(4-Chlorobenzenesulfonyl)-(4-pyrazol-1-yl-benzyl)-amino]-cycloheptanecarboxylic acid amide], the IC50 lay in the range of 500 to 10000 nM. For the compound `COC(=O)c1ccc(CN([C@@H]2CCCC[C@@H]2C(N)=O)S(=O)(=O)c2ccc(Cl)cc2)cc1` [Example 1, 4-[[(1R,2S)-(2-Carbamoyl-cyclohexyl)-(4-chlorobenzenesulfonyl)-amino]-methyl]-benzoic acid methyl ester], the IC50 was at most 50 nM. Same read-out and setting: to `CCNC(=O)c1ccc(CN([C@@H]2CCCC[C@@H]2C(N)=O)S(=O)(=O)c2ccc(Cl)cc2)cc1` [Example 2, 4-[[(1R,2S)-(2-Carbamoyl-cyclohexyl)-(4-chlorobenzenesulfonyl)-amino]-methyl]-N-ethyl-benzamide] belongs at most 50 nM; to `CCNC(=O)c1ccc(CN([C@@H]2CCCC[C@@H]2C(N)=O)S(=O)(=O)c2ccc(Cl)cc2)cc1` [Example 28, 4-[[(1R,2S)-(2-Carbamoyl-cyclohexyl)-(4-chlorobenzenesulfonyl)-amino]-methyl]-N-ethyl benzamide], 500 to 10000 nM.

Regarding `CCNC(=O)c1ccc(CN([C@H]2CCCC[C@@H]2C(N)=O)S(=O)(=O)c2ccc(Cl)cc2)cc1` [Example 29, 4-[[(1S,2S)-(2-Carbamoyl-cyclohexyl)-(4-chlorobenzenesulfonyl)-amino]-methyl]-N-ethyl benzamide], the IC50 was 50 to 500 nM. Same read-out and setting: to `CCNC(=O)c1ccc(CN([C@@H]2CCCC[C@H]2C(N)=O)S(=O)(=O)c2ccc(Cl)cc2)cc1` [Example 30, 4-[[(1R,2R)-(2-Carbamoyl-cyclohexyl)-(4-chlorobenzenesulfonyl)-amino]-methyl]-N-ethyl benzamide] belongs 50 to 500 nM; to `CCNC(=O)c1ccc(CN([C@@H]2CCC[C@@H]2C(N)=O)S(=O)(=O)c2ccc(Cl)cc2)cc1` [Example 31, 4-[[(1R,2S)-(2-Carbamoyl-cyclopentyl)-(4-chlorobenzenesulfonyl)-amino]-methyl]-N-ethyl-benzamide], 50 to 500 nM; to `CCNC(=O)c1ccc(CN([C@@H]2CCC[C@H]2C(N)=O)S(=O)(=O)c2ccc(Cl)cc2)cc1` [Example 32, 4-[[(1R,2R)-(2-Carbamoyl-cyclopentyl)-(4-chlorobenzenesulfonyl)-amino]-methyl]-N-ethyl-benzamide], 500 to 10000 nM.
